Consider five compounds from US20240335563A1, “EPIGENETIC MODULATORS FOR TISSUE REPROGRAMMING” (THE TRUSTEES OF INDIANA UNIVERSITY, priority 2021, published 2024).

The subject of one assay is ESC-specific genes. As to conditions: alone, without transduction of the reprogramming factors; cited from earlier work.
Another assay relates to intermediate iPSCs. Particulars: cited from earlier work; for SCR efficiency: HDAC inhibition.
Assay [1] has as its system neural precursor cells and MEFs. As to conditions: G9a inhibition, H3K9 hypomethylation; cited from earlier work.
The test system of the next assay is mouse fibroblasts. Particulars: LSD1 inhibition; cited from earlier work.
Assay [2] relates to streptozotocin-induced diabetic C57BL/6 male mice. Briefly: Blood glucose in streptozotocin-induced diabetic mice after TNT-PMGF, with intradermal epigenetic modulator. In kind it is in vivo. Particulars: p<0.001 vs. week 4.

For the compound `CC(/C=C/C(=O)NO)=C\[C@@H](C)C(=O)c1ccc(N(C)C)cc1` [trichostatin A], in the assay on ESC-specific genes, the “upregulation of ESC-specific genes” value is listed as “sufficient to upregulate ESC-specific genes”. The SCR efficiency entry in the assay with intermediate iPSCs was “improves SCR efficiency”.
Take `COc1cc2nc(N3CCCN(C)CC3)nc(NC3CCN(Cc4ccccc4)CC3)c2cc1OC` [BIX-01294]: the “reprogramming of neural precursor cells and MEFs into iPSCs” value in assay [1] was “enhances the reprogramming”.
As for `N[C@@H]1C[C@H]1c1ccccc1` (racemic) [Parnate, tranylcypromine], the “reprogramming efficiency of mouse fibroblasts” value in the assay on mouse fibroblasts is “increases the reprogramming efficiency”.
For `Nc1ncn([C@@H]2O[C@H](CO)[C@@H](O)[C@H]2O)c(=O)n1` [5-Azacytidine], the “reprogramming of intermediate iPSCs” value in the assay with intermediate iPSCs (DNMT inhibition during reprogramming) was “allows intermediate iPSCs to be fully reprogrammed”. The compound also displayed an average blood glucose in assay [2] (week 5, after 5-Azacytidine 10 mg/Kg intradermally at TNT sites thrice in week 4, TNT PMGF non-responders) of approximately 275 mg/dL. Also, the blood glucose in assay [2] (week 8, after subsequent 5-Azacytidine injection at week 7) was approximately 170 mg/dL; in assay [2] (week 9, after subsequent 5-Azacytidine injection at week 7) it was 169 mg/dL.
For the compound `CCCC(CCC)C(=O)O` [valproic acid], the SCR efficiency result with intermediate iPSCs is listed as “improves SCR efficiency”.
